This is an account of results in patent US20210198277A1, “AMINE-SUBSTITUTED ARYL OR HETEROARYL COMPOUNDS” (Epizyme, Inc., priority 2016, published 2021).

The target in the assay is T1, EHMT2 (Homo sapiens, UniProt Q96KQ7).
T1 construct: host or cells: MDA-MB-231
T1 sequence (Q96KQ7 1-1210): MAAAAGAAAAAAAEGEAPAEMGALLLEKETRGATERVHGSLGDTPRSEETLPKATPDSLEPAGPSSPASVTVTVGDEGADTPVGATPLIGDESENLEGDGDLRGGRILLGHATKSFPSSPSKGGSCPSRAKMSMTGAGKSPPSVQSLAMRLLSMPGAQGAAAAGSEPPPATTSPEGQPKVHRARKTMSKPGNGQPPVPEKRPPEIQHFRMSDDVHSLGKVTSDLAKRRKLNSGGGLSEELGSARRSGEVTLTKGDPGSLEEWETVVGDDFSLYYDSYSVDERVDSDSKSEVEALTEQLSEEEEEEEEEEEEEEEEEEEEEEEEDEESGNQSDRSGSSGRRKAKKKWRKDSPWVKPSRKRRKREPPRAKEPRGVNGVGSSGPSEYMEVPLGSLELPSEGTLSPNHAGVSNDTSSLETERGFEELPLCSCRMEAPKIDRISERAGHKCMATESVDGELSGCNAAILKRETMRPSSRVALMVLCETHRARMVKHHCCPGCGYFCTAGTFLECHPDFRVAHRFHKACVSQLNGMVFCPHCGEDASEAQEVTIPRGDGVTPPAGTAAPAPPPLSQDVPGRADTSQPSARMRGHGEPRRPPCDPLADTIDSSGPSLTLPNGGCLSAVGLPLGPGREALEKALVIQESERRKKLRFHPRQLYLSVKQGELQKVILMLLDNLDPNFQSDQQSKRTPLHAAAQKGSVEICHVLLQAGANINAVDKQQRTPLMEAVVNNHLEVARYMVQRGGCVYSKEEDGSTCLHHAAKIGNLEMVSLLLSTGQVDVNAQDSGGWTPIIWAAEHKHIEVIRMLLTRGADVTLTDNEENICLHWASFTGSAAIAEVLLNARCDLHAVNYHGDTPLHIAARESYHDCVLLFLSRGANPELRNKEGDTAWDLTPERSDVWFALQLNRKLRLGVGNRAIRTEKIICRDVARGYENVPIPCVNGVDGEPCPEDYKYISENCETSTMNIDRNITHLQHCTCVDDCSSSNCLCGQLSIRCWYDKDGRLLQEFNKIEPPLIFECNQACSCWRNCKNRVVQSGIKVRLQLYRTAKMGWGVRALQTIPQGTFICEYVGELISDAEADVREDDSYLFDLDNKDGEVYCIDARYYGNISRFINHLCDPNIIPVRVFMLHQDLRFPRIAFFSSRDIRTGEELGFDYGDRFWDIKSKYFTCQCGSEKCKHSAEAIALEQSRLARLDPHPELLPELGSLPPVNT
The assay can be described thus: MDA-MB-231 H3K9me2 in-cell Western assay (EHMT2 ICW). Type of assay: cell-based. The following applies: Table III; MDA-MB-231 H3K9me2 in-cell Western; read-out: EHMT2 ICW (IC50 μM). The procedure, abridged: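 Cells seeded at 3,000/well onto pre-dispensed compound; 30 min RT, then 48 h 37 °C/5% CO2. PFA fix, block, α-H3K9me2 1:800 o/n 4 °C, 800CW secondary + DRAQ5. Odyssey scan 700/800 nm; ratio → % inhibition → 4-parameter IC50.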
In the case of `CNc1ccnc(Nc2ccc(OC)c(OCc3cc(C4CC4)on3)c2)n1` [Compound 426, N^2-(3-((5-cyclopropylisoxazol-3-yl)methoxy)-4-methoxyphenyl)-N^4-methylpyrimidine-2,4-diamine], the concentration for half-maximal inhibition (IC50) is greater than 10 µM.

Consider `CCNC(=O)c1cc(Nc2nccc(NC)n2)ccn1` [Compound 291, N-ethyl-4-((4-(methylamino)pyrimidin-2-yl)amino)picolinamide], for which the IC50 was greater than 10 µM.

Regarding `COc1ccc(Nc2nc(C)cc(NCC3CCOCC3)n2)cc1OCC1CCN(C)C1` (centres unmarked) [Compound 451, N^2-(4-methoxy-3-((1-methylpyrrolidin-3-yl)methoxy)phenyl)-6-methyl-N^4-((tetrahydro-2H-pyran-4-yl)methyl)pyrimidine-2,4-diamine], the half-maximal inhibitory concentration (IC50) lay in the range of 1 to 10 µM.

`CNc1ccnc(Nc2ccc(OC)c(OCCCN3CCC(C(F)(F)F)C3)c2)n1` (centres unmarked) [Compound 285, N^2-(4-methoxy-3-(3-(3-(trifluoromethyl)pyrrolidin-1-yl)propoxy)phenyl)-N^4-methylpyrimidine-2,4-diamine]: the half-maximal inhibitory concentration (IC50) was greater than 10 µM.

With `CNc1ccnc(Nc2ccc(OC)c(OCCCN3CCC(O)C3)c2)n1` (centres unmarked) [Compound 286, 1-(3-(2-methoxy-5-((4-(methylamino)pyrimidin-2-yl)amino)phenoxy)propyl)pyrrolidin-3-ol], the IC50 lay within 0.1 to 1 µM.

As for `CNc1ccnc(N[C@@H]2CCC[C@H](OCCCN3CCCC3)C2)n1` [Compound 427], the IC50 was greater than 10 µM.

On to `CNc1ccnc(Nc2cccc(C(C)OCCN3CCCC3)c2)n1` (centres unmarked) [Compound 279, N^4-methyl-N^2-(3-(1-(2-(pyrrolidin-1-yl)ethoxy)ethyl)phenyl) pyrimidine-2,4-diamine], for which the concentration for half-maximal inhibition (IC50) is greater than 10 µM.

For the compound `CNc1cc(Nc2cc(OCCCN3CCCC3)c(OC)cn2)cc(C)n1` [Compound 308, N^4-(5-methoxy-4-(3-(pyrrolidin-1-yl)propoxy)pyridin-2-yl)-N^2,6-dimethylpyridine-2,4-diamine], the half-maximal inhibitory concentration (IC50) lay in the range of 1 to 10 µM.

On to `CCN(CC)CCCOc1cc(Nc2nccc(NC)n2)ccc1OC` [Compound 280, N^2-(3-(3-(diethylamino)propoxy)-4-methoxyphenyl)-N^4-methylpyrimidine-2,4-diamine], for which the IC50 fell in the range of 1 to 10 µM.

Take `CNc1nc(C)cc(Nc2cc(OCCCN3CCCC3)c(OC)cn2)n1` [Compound 306, N^4-(5-methoxy-4-(3-(pyrrolidin-1-yl)propoxy)pyridin-2-yl)-N^2,6-dimethylpyrimidine-2,4-diamine]: the 50% inhibitory concentration (IC50) was greater than 10 µM.

With `CNc1nc(C2CCN(C)CC2)c2cc(OC)c(OCCCN3CCCC3)cc2n1` [Compound 270], the concentration for half-maximal inhibition (IC50) was 0.1 to 1 µM.

As for `CNc1cc(C)nc(Nc2ccc(OC)c(O[C@H]3C[C@@H](N(C)C)C3)c2)n1` (single isomer, unassigned) [Compound 317, N^2-(3-((1s,3s)-3-(dimethylamino)cyclobutoxy)-4-methoxyphenyl)-N^4,6-dimethylpyrimidine-2,4-diamine], the 50% inhibitory concentration (IC50) is 1 to 10 µM.

As for `COc1ccc(Nc2cc(C)nc(O)n2)cc1OCCCN1CCCC1` [Compound 448, 4-((4-methoxy-3-(3-(pyrrolidin-1-yl)propoxy)phenyl)amino)-6-methylpyrimidin-2-ol], the concentration for half-maximal inhibition (IC50) is greater than 10 µM.

Take `COc1ccc(Nc2nccc(NCC3CC(C)(C)NC(C)(C)C3)n2)cc1OCCCN1CCCC1` [Compound 278]: the IC50 is 1 to 10 µM.

In the case of `CNc1ccnc(Nc2ccc(OC)c(OCCCN3CC[C@H](F)C3)c2)n1` [Compound 271], the IC50 was greater than 10 µM.

As to `CNc1ccnc(Nc2cccc(N3CC(N)CC3=O)c2)n1` (centres unmarked) [Compound 296], the IC50 is greater than 10 µM.

Regarding `CNc1ccnc(Nc2ccc(OC)c(OCCCN3CC(OC)C3)c2)n1` [Compound 425, N^2-(4-methoxy-3-(3-(3-methoxyazetidin-1-yl)propoxy)phenyl)-N^4-methylpyrimidine-2,4-diamine], the concentration for half-maximal inhibition (IC50) fell in the range of 1 to 10 µM.

Turning to `COc1ccc(Nc2nc(C)cc(O)n2)cc1OCCCN1CCCC1` [Compound 447, 2-((4-methoxy-3-(3-(pyrrolidin-1-yl)propoxy)phenyl)amino)-6-methylpyrimidin-4-ol], the IC50 is greater than 10 µM.

As for `CNc1ccnc(Nc2ccc(OC)c(OCCCN3CCC(S(C)(=O)=O)C3)c2)n1` (centres unmarked) [Compound 282], the concentration for half-maximal inhibition (IC50) was greater than 10 µM.

In the case of `CNc1ccnc(Nc2ccc(OC)c(OCCCN3CC(C)C3)c2)n1` [Compound 423, N^2-(4-methoxy-3-(3-(3-methylazetidin-1-yl)propoxy)phenyl)-N^4-methylpyrimidine-2,4-diamine], the IC50 was 1 to 10 µM.

As for `CNc1ccnc(Nc2ccc(OC)c(OCCCN3CCC(C#N)C3)c2)n1` (centres unmarked) [Compound 287, 1-(3-(2-methoxy-5-((4-(methylamino)pyrimidin-2-yl)amino)phenoxy)propyl)pyrrolidine-3-carbonitrile], the IC50 is greater than 10 µM.

For the compound `CNc1ccnc(Nc2cccc(OCC(F)CN3CCCC3)c2)n1` (centres unmarked) [Compound 276, N^2-(3-(2-fluoro-3-(pyrrolidin-1-yl)propoxy)phenyl)-N^4-methylpyrimidine-2,4-diamine], the concentration for half-maximal inhibition (IC50) was greater than 10 µM.

`CNc1cc(C2CC2)nc(Nc2ccc(OC)c(OCCCN3CCCC3)c2)n1` [Compound 320, 6-cyclopropyl-N^2-(4-methoxy-3-(3-(pyrrolidin-1-yl)propoxy)phenyl)-N^4-methylpyrimidine-2,4-diamine]: the IC50 was 0.1 to 1 µM.

In the case of `CNc1cc(CC(F)(F)F)nc(Nc2ccc(OC)c(OCCCN3CCCC3)c2)n1` [Compound 428, N^2-(4-methoxy-3-(3-(pyrrolidin-1-yl)propoxy)phenyl)-N^4-methyl-6-(2,2,2-trifluoroethyl)pyrimidine-2,4-diamine], the IC50 is 1 to 10 µM.

Regarding `COc1cnc(Nc2nc(C)cc3[nH]ccc23)cc1OCCCN1CCCC1` [Compound 310], the IC50 is greater than 10 µM.

With `CNc1cc(Nc2ccc(OC)c(OCCCN3CCCC3)c2)ncc1F` [Compound 272, 5-fluoro-N^2-(4-methoxy-3-(3-(pyrrolidin-1-yl)propoxy)phenyl)-N^4-methylpyridine-2,4-diamine], the IC50 was 1 to 10 µM.

Turning to `CNc1ccnc(Nc2ccc(OC)c(OCc3cn(C4CC4)nn3)c2)n1` [Compound 434, N^2-(3-((1-cyclopropyl-1H-1,2,3-triazol-4-yl)methoxy)-4-methoxyphenyl)-N^4-methylpyrimidine-2,4-diamine], the half-inhibitory concentration (IC50) was greater than 10 µM.

As to `CNc1cc(C)nc(Nc2ccc(OC)c(OCC3CN(CC4CC4)C3)c2)n1` [Compound 445, N^2-(3-((1-(cyclopropylmethyl)azetidin-3-yl)methoxy)-4-methoxyphenyl)-N^4,6-dimethylpyrimidine-2,4-diamine], the IC50 fell in the range of 1 to 10 µM.

In the case of `CNc1cc(C)nc(Nc2ccc(OC)c(OCCCOC)c2)n1` [Compound 312, N^2-(4-methoxy-3-(3-methoxypropoxy)phenyl)-N^4,6-dimethylpyrimidine-2,4-diamine], the IC50 is greater than 10 µM.

On to `CNc1cc(C)nc(Nc2ccc(OC)c(OC[C@H]3C[C@@H](N(C)C)C3)c2)n1` [Compound 316], for which the IC50 was 1 to 10 µM.

Take `CNc1cc(C)nc(Nc2cc(F)c(OC)c(OCCCN3CCCC3)c2)n1` [Compound 301, N2-(3-fluoro-4-methoxy-5-(3-(pyrrolidin-1-yl)propoxy)phenyl)-N4,6-dimethylpyrimidine-2,4-diamine]: the IC50 was greater than 10 µM.

Take `CNc1cc(C)nc(Nc2ccc(OC)c(OCCOC)c2)n1` [Compound 311, N^2-(4-methoxy-3-(2-methoxyethoxy)phenyl)-N^4,6-dimethylpyrimidine-2,4-diamine]: the IC50 is greater than 10 µM.

One may read the IC50 as the midpoint of a concentration-inhibition curve.
